# Legend:
# [1] = tested on: mouse SVF-derived adipocytes; experiment: In vitro lipolysis assay (FFA release), mouse SVF-derived adipocytes; assay type: cell-based
# Method: Isolation of adipose stromal fraction (SVF) was performed as published previously with slight modifications (Bapat et al., 2015). Inguinal adipose (iWAT) tissues were used for isolation of SVF due their ability to differentiate to mature adipocytes. Briefly, adipose tissues were dissected, washed in cold PBS and cut into small pieces in digestion buffer (100 mM HEPES, 120 mM NaCl, 50 mM KCl, 1 mM CaCl2), 1.5% fatty acids free BSA, 1 mg/ml collagenase I). Samples were dissociated in 37° C. water bath with shaking for 30-60 min with occasional monitoring to prevent over digestion. Tissue debris were filtered by 100 μm cell strainer and SVF was collected by centrifugation at 500 g for 5 minutes. Cell pellet was washed once by PBS and filtered with 40 μm cell strainer. Red blood cells were lysed with Red blood cell lysis buffer (BioLegend) according to manufacturer's instructions. The remaining cells were re-suspended and cultured in DMEM/F12 with 20% FBS (GemCell, 100-500) at 37° C., 5% CO2.
# Differentiation of pre-adipocytes were based on previously published methods (Bunnell et al., 2008). Briefly, 3T3-L1 pre-adipocytes were grown to full confluence in DMEM, 10% FBS (GemCell, 100-500), 10 mM HEPES and antibiotic-antimycotic (full growth media). 2 days later, differentiation was induced by replacing the media with 1 μM dexamethasone, 1 μM rosiglitazone, 500 μM IBMX and 5 μg/ml insulin in full growth media 2 days later after reaching full confluence. Two days later media was replaced by differentiation induction media with 1 μM rosiglitazone and 5 μg/ml insulin for 4 days with media change after 2 days. Cells were kept in maintenance medium (full growth media with 5 μg/ml insulin) for 4 more days for full differentiation. […]
# For in vitro lipolysis assay, cells were washed with PBS and media were changed to full growth media 1 day before experiment. […] FFAs were measured in the media using a commercial kit (Wako-NEFAHR2) and normalized to protein concentration. […] FFAs were measured and normalized by the explant weights.
# blood glucose levels = experiment: Blood glucose levels in ob/ob mice; assay type: in vivo, mouse
# Method: Mice were kept in 12 h light/dark cycle in a temperature-controlled environment. Mice had free access to food and water unless noted otherwise. C57/B6 mice background was used unless noted otherwise. C57BL/6J and ob/ob (000632-B6. Cg-Lepob/J) male mice were obtained from Jackson Laboratory. PDE4D knock-out mice (034588-UCD) were obtained from MMRRC. For diet-induced obesity (DIO) studies, mice were fed a high fat diet (HFD) (60% fat, F3282; Bio-Serv) for minimum of 12 weeks to induce insulin resistance when diet-induced obese model is used. Insulin levels and blood glucose levels were monitored to confirm insulin resistance. To generate adipose-specific FGFR1 deletion, adiponectin-cre mice (B6; FVB-Tg (Adipoq-cre)1Evdr/J; Stock: 010803) were crossed to Fgfr1 flox/flox (B6.129S4-Fgfr1tm5.1Sor/J; Stock: 00767) mice. For AAV mediated expression of target proteins in adipose tissue, 5×10E+11 genomic copies of AAV were injected via tail vein or retro-orbital route.
# Recombinant FGF1 (rFGF1) was dissolved in phosphate-buffered saline (PBS) at a concentration of 0.2 mg/ml and was injected subcutaneously at a 0.5 mg kg^−1 dose. Blood glucose was monitored at indicated time points after injection. For initial measurements (2-4 h) food was removed after injection to exclude any indirect effects stemming from anorexigenic effects of FGF1. PDE4 inhibitor roflumilast stock in DMSO was diluted at 1 mg/ml in 30% captisol, pH 10 and delivered to mice thorough oral gavage at 5 mg kg^−1 dose. PDE3 inhibitor cilostamide stock in DMSO was diluted at 2 mg/ml in 30% captisol and delivered through intraperitoneal injection at 10 mg kg^−1 dose.
# cAMP = cAMP levels in 3T3-L1 adipocytes (ELISA, biosensor, CRE-Luc reporter); assay type: cell-based
# Method: 3T3-L1 cells were transduced with viral particles ([…]) in 24 well plates. Media was replaced after overnight incubation. 3-4 days after AAV infection, cells were treated as described for lipolysis assay. For cAMP analysis by biosensors, Downward Green cADDis cAMP Sensor (D0200G) and control mNeon Green (F0500G) produced in BacMam system was purchased from Montana Molecular. Brightfield and fluorescence images were taken every 10-20 min in I IncuCyte® Live-cell analysis system (Sartorius) and images were analyzed by IncuCyte® Analysis Software. High-resolution live cell imaging was performed with LSM 880 Airyscan microscope at 40× objective.
substance,measurement,setting,value
"FGF1: Recombinant fibroblast growth factor 1 protein, dissolved in PBS, injected subcutaneously",anti-lipolytic activity of FGF1 with selective inhibitors of PDE4,[1]; FGF1 100 ng/ml with roflumilast 2 μM,blocked by selective inhibitors of PDE4
same,basal and isoproterenol-induced lipolysis,"[1]; FGF1 100 ng/ml, 10 min before ISO 1 nM",acutely suppressed basal and isoproterenol-induced lipolysis
same,isoproterenol-induced lipolysis in adipocytes derived from PDE4D KO SVF,"[1]; FGF1 100 ng/ml, ISO 1 nM",insensitive to FGF1 treatment
same,"blood glucose, FGF1 co-administered with atglistatin","blood glucose levels; ad lib fed ob/ob mice, FGF1 0.5 mg/kg + atglistatin 120 mg/kg",no additive effects
same,blood glucose,"blood glucose levels; ad lib fed ob/ob mice, FGF1 0.5 mg/kg s.c. as single agent",robustly lowered blood glucose
same,FGF1-induced reduction in glucose levels in mice overexpressing PDE4D3,"blood glucose levels; ob/ob mice with adAAV-PDE4D3, FGF1 0.5 mg/kg",greater reduction in glucose levels
same,FGF1 glucose response in mice expressing the S44A mutant,"blood glucose levels; ob/ob mice with adAAV-PDE4D3 S44A, FGF1 0.5 mg/kg",indistinguishable from control mice
same,isoproterenol-induced increases in cAMP and cAMP/PKA signaling,"cAMP; FGF1 pretreatment, ISO 100 nM",attenuated isoproterenol-induced increases in cAMP
same,FGF1-induced attenuation of isoproterenol-driven increase in cAMP with PDE4 inhibitor,"cAMP; live 3T3-L1 cells, cAMP biosensor, roflumilast 2 μM",lost

# Reference: US20250082781A1, “METHODS OF LOWERING BLOOD GLUCOSE AND TREATING TYPE 2 DIABETES BY ACTIVATION OF PDE4D3” (Salk Institute for Biological Studies, priority 2021, published 2025)
